The values that follow are results of earlier work, collected in patent US10543256B2, “Stable pharmaceutical formulation comprising a reconstituted pulmonary surfactant composition” (CHIESI FARMACEUTICI S.P.A., priority 2016, dated 2020).

Structures are written as SMILES.

The conditions of this data set: at 25° C.

With `Cl.NC(CO)(CO)CO` [TRIS, Tris(hydroxymethyl)aminomethane hydrochloride], the pKa is 8.06.
